{"source": "patent US7959743B2", "about": "“Lithium salts of fatty alcohol sulphates for cleaning boreholes, boring devices and borings” (priority 2004, dated 2011)", "test_system": "Corophium volutator", "details": "in vivo"}
{"substance": "C8-10 alkyl-1,5-glucoside [V4]", "values": [{"measurement": "Corophium volutator 10 d, LC 50", "value": "None after 433 mg/kg"}]}
{"substance": "Soya polyol ethoxylate [V3]", "values": [{"measurement": "Corophium volutator 10 d, LC 50", "value": 1888, "unit": "mg/kg"}]}
